Experimental data: patent publication US9067928B2 (Genentech, Inc., priority 2008, dated 2015)

Columns and labels:
[1] = target: T1, Bcl-2 (Homo sapiens, UniProt P10415); test: TR-FRET binding assay, competition with F-Bak for Bcl-2 binding site; conditions: GST-Bcl-2, F-Bak probe
T1 construct: made in house
Method: (§1) Test compounds were serially diluted in DMSO starting at 50 μM (2× starting concentration; 10% DMSO) and 10 μL transferred into a 384-well plate.
(§2) The samples are then mixed on a shaker for 1 minute then incubated for an additional 2 hours at room temperature. For each assay plate, a probe/antibody and protein/antibody/probe mixture were included as a negative and a positive control, respectively. Fluorescence was measured on the Envision (Perkin Elmer) using a 340/35 nm excitation filter and 520/525 (F-Bak) and 495/510 nm (Tb-labeled anti-his antibody) emission filters. Dissociation constants (Ki) were determined using Wang's equation (see, Wang, Z. X. An exact mathematical expression for describing competitive binding of two different ligands to a protein molecule. FEBS Lett. 1995 360:111-114). The TR-FRET assay can be performed in the presence of varying concentrations of human serum (HS) or fetal bovine serum (FBS).
For comparison, the measurement of the competition of compounds of the invention for other Bcl-2 family protein binding sites (e.g., Bcl-2, Mcl-1) using the TR-FRET binding assay was accomplish by substituting GST-Bcl-xL in the TR-FRET assay with other GST-labeled protein, e.g. GST-Bcl-2, GST-Mcl-1 prepared in-house.
For comparison, data (Ki in micromolar) from the measurement of the competition by certain compounds of the invention (i.e., compounds 1, 28, 38, 63, 71, 75, 80, 81, 92 and 94 in Table 1) with F-Bak for the Bcl-2 binding site using the TR-FRET binding assay are, 1.2, 0.15, 0.01, 0.018, 0.50, 0.272, 0.167, 0.66, 0.23 and 0.000003 respectively.

[2] = target: T2, Bcl-xL (Homo sapiens, UniProt Q07817); test: TR-FRET binding assay, competition with F-Bak for Bcl-xL binding site; conditions: GST-Bcl-xL, F-Bak probe
T2 construct: made in house
Method: The measurement of competition of compounds of the invention with F-Bak for a Bcl-2 family protein (Bcl-xL) binding site using a Time Resolved Fluorescence Resonance Energy Transfer (TR-FRET) Binding Assay:
as §1, §2

[3] = target: T2, Bcl-xL; test: Alpha Screen Bcl-xL binding assay, competition with Bim26-mer; conditions: values listed in the order of Table 1; read-out: Alphascreen results (IC50)
Method: The measurement of competition of compounds of the invention with Bim26-mer for a Bcl-2 family protein binding site using an Alpha Screen Bcl-xL Binding Assay:
The BH3 proteins ALPHASCREEN™ assay was used to identify active small molecules Bcl-2 family protein screen. e.g., Bcl-xL, hmMcl-1 screen. To determine an accurate estimation of the IC50, the compounds were routinely tested at starting concentrations, 100 μM and/or 1 μM and serially titrated 3 fold over 11 dilutions.
The beads come in close proximity when the protein and the peptides interact. Donor beads contain a photosensitiser that converts oxygen to an excited form of O2 at an excitation of 680 nm. Energy is transformed from the singlet oxygen and reacts with chemiluminescers on the acceptor bead, resulting in light emission at 520-620 nm. […] With this information, the IC50 of each compound was calculated
GST-Bcl-xL, GST-hmMcl-1 and biotinylated GST proteins were prepared in-house and were stored as stock solutions at −80° C. The biotinylated-Bak, and biotinylated-Bim peptides were purchased from Auspep and were stored as 500 μM stock solutions in 100% DMSO at −80° C. The ALPHASCREEN™ GST (Glutathione-S-Transferase) Detection Kit was obtained from Perkin Elmer Lifesciences (Cat #6760603R). The Proxiplates, white 384 well flat-Bottom plates were purchased from Interpath Services, Melbourne (Cat #784075). The seals to cover the plates were purchased from Proscience. Melbourne (Cat#784075). DMSO was purchased from AnalaR. The 384 deep well plates and the Polypropylene 50 μL, V bottom polypropylene compound plates were purchased from Matrical.
Compounds of the invention were prepared as 10 mM stocks with 100% DMSO on the day prior to performing the assay. […] To achieve a final compound concentration of 1 μM, in a separate matrical plate, 28 μL of 100% DMSO and 2 μL of 10 mM compound was added to a well, mixed well. 2 μL of this solution was taken and added to 38 μL of 100% DMSO. 20 μL of this solution was added to the test matrical plate. Several control compounds were included in the test plates. For the control wells 15 μL 100% DMSO only was added to the appropriate wells of each plate. The compound plates were then serially diluted 2 fold using the MiniTrak. Once titrations were complete, the compound plate was immediately covered with a foil seal to prevent evaporation.
The assay and bead buffers were prepared fresh. Each titrated compound plate was assayed in duplicate. The following volumes were sufficient to run 12 Proxiplates (4 assay plates run in duplicate in each of Bclxl, hmMcl and counter assays)
Protein and Peptide Preparation; and Assay Performance • 1. The assay and bead buffers were used to prepare the acceptor and donor solutions. ALPHASCREEN™ beads are light sensitive and therefore prepared in a darkened room. 2.5 μL of beads were added per 1 mL of buffer. • 2. The volume of protein or peptide to add was calculated using the following formula:
[formula] • C1=Final Concentration of protein/peptide • C2=Stock Concentration of protein/peptide • V1=Total Volume of Acceptor/Donor Solution • V2=Volume of stock protein/Peptide to add to Acceptor/Donor solution • 3. The assay components were prepared as separate Acceptor and Donor Solutions. The Acceptor Solution contained Acceptor heads and target protein, while the Donor Solution contained Donor beads and biotinylated peptide.
• 4. After the solutions were prepared, they were left to incubate for 30 minutes at room temperature to allow the beads to bind to the protein and the peptide. • 5. 50 μL of Bcl-xL solution, 50 μL of hmMcl-1 solution and 50 µL of biotinylated-GST were added into separate deep wells on an assay plate. A control […]. Assay/Bead buffer was added separate well plates (no protein). • 6.

[4] = system: Mcl-1-/- mouse embryonic fibroblasts (MEF); test: Cell viability assay for Mcl-1-/- mouse embryonic fibroblasts (CellTiter-Glo); assay type: cell-based; conditions: Fibroblast, 1% Fetal Bovine Serum, read-out: MEF Mcl-1-/- KO cell viability results (EC50)
From the text: a. Cell Viability Assay for Mcl-1^−/− Mouse Embryonic Fibroblasts (MEF):
Neutralization of both […] and Mcl-1 anti-apoptotic proteins in normal cells is required before a cell undergoes apoptosis via the downstream Bax/Bak pathway See, Chen. L. et al. Mol. Cell (2005) 17, 393-403; Willis, S. N. et al. Genes Dev. (2005) 19, 1294-1305. A compound that only targets Bcl-xL should not affect normal cells, but could kill certain cancer cells if they rely more on Bcl-xL and less on other anti-apoptotic proteins, e.g. Mcl-1, for survival. To mirror this, compounds of the invention were tested for its effect on survival of wild type (wt) mouse embryo fibroblasts (MEFs), Bax/Bak double knockout (BB DKO) MEFs, MEFs that expressed Noxa, and MEFs that expressed Bad. Noxa specifically neutralizes Mcl-1. […] MEFs that express Noxa mirror cancer cell types that are reliant on Bcl-xL for survival and should be much more sensitive to killing by a Bcl-xL targeting compound than MEFs where both Bcl-xL and Mcl-1 are protective.
In this assay, Mcl-1^(−/−) cells were used to confirm that cell apoptosis in the presence of BH3 mimetic small molecules was due to predominantly Bcl-xL inactivation. This inactivation leaves Bax/Bak unconstrained and results in apoptosis. The […]-GLO Luminescent Cell Viability Assay is a homogeneous method of determining the number of viable cells in culture based on quantitation of the ATP present. The amount of ATP correlates with the presence of metabolically active cells such that following cell lysis the amount of ATP present is proportional to the amount of luminescence measured.
Mcl-1^(−/−) mouse embryonic fibroblasts (MEFs) are an adherent cell line prepared in house. MEFs were grown in Iwaki 75 cm^2 tissue culture flasks (cat #3123-075) with FMA media which consists of: • 89% DME Kelso • 10% heat-inactivated foetal calf serum (FCS) (Hyclone cat #SH30396.03) • 1% 10 mM asparagine (Fluka cat #11149) • 275 μl of a 1:2000 dilution of 2-mercaptoethanol is added to the final 500 ml volume of FMA (Sigma cat #M7522; diluted in MT-PBS)
FMA was stored at 4° C. and used at 37° C. MEFs were cultured in FMA media and harvested in MT-PBS and trypsin. For MEF cell viability assays, cells were seeded separately in plates with 10% FCS-FMA and 1% FCS-FMA. […]
Automated Systems that can be used in this assay include: 1) Multidrop—The MULTIDROP 384 (ThermoLabsystems) dispenser was used to dispense cells aseptically into the assay plates: 2) MiniTrak—The […] system from Perkin Elmer was used for titration of the compound plates; 3) Zymark—The ZYMARK SCICLONE ALH3000 System with 100 nL pintool head was used for compound addition to the cells; 4) EnVision—The ENVISION plate reader was used to measure the viability via the detection of the luminescence. […]

T2 sequence (Q07817 whole entry, species assumed): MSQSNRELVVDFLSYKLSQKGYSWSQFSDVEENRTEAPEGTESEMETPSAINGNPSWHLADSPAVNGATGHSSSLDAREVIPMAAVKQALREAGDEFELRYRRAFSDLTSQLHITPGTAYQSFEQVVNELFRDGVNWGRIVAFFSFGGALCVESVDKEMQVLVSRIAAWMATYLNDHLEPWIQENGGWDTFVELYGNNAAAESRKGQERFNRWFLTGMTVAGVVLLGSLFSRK
T1 sequence (P10415 whole entry, species assumed): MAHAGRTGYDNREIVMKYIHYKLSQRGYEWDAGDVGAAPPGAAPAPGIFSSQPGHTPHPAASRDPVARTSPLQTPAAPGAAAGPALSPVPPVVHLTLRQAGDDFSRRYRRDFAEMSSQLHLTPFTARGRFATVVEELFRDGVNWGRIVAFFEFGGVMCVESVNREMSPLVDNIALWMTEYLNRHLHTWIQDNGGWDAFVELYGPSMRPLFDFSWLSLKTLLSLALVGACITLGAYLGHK

| SMILES | Ki [1] [nM] | Ki [2] [nM] | IC50 [3] [nM] | EC50 [4] [nM] |
| --- | --- | --- | --- | --- |
| O=C(O)c1nc(-c2ccc3c(c2)N(C(=O)Nc2nc4ccccc4s2)CCC3)sc1CCCOc1ccc(-n2ncc3cncnc32)cc1 [Example 94, 5-(3-(4-(1H-pyrazolo[3,4-d]pyrimidin-1-yl)phenoxy)propyl)-2-(1-(benzo[d]thiazol-2-ylcarbamoyl)-1,2,3,4-tetrahydroquinolin-7-yl)thiazole-4-carboxylic acid] | 0.003 | 0.003 | 0.5 |  |
| O=C(O)c1ccc(-c2sc(-c3ccc4c(c3)N(C(=O)Nc3nc5ccccc5s3)CCO4)nc2C(=O)O)cc1 [Example 68, 2-(4-(benzo[d]thiazol-2-ylcarbamoyl)-3,4-dihydro-2H-benzo[b][1,4]oxazin-6-yl)-5-(4-carboxyphenyl)thiazole-4-carboxylic acid] |  | 470 | 540 |  |
| O=C(O)c1nc(-c2ccc3c(c2)N(C(=O)Nc2nc4ccccc4s2)CCC3)ccc1OCCCc1ccccc1 [Example 90, 6-(1-(benzo[d]thiazol-2-ylcarbamoyl)-1,2,3,4-tetrahydroquinolin-7-yl)-3-(3-phenylpropoxy)picolinic acid] |  |  | 10 | 590 |
| CCOc1ccc(-c2sc(-c3ccc4c(c3)N(C(=O)Nc3nc5ccccc5s3)CCC4)nc2C(=O)O)cc1 [Example 75, 2-(1-(benzo[d]thiazol-2-ylcarbamoyl)-1,2,3,4-tetrahydroquinolin-7-yl)-5-(4-ethoxyphenyl)thiazole-4-carboxylic acid] | 272 | 1 | 7 |  |
| O=C(O)c1nc(-c2ccc3c(c2)N(C(=O)Nc2nc4ccccc4s2)CCC3)sc1Oc1ccccc1 [Example 63, 2-(1-(benzo[d]thiazol-2-ylcarbamoyl)-1,2,3,4-tetrahydroquinolin-7-yl)-5-phenoxythiazole-4-carboxylic acid] | 18 | 12 | 50 |  |
| COc1ccc(-c2sc(-c3ccc4c(c3)N(C(=O)Nc3nc5ccccc5s3)CCC4)nc2C(=O)O)cc1 [Example 71, 2-(1-(benzo[d]thiazol-2-ylcarbamoyl)-1,2,3,4-tetrahydroquinolin-7-yl)-5-(4-methoxyphenyl)thiazole-4-carboxylic acid] | 500 | 7 | 40 |  |
| CC(C)Oc1ccc(-c2sc(-c3ccc4c(c3)N(C(=O)Nc3nc5ccccc5s3)CCC4)nc2C(=O)O)cc1F [Example 80, 2-(1-(benzo[d]thiazol-2-ylcarbamoyl)-1,2,3,4-tetrahydroquinolin-7-yl)-5-(3-fluoro-4-isopropoxyphenyl)thiazole-4-carboxylic acid] | 167 | 0.7 | 6 |  |
| COc1ccc(-c2sc(-c3ccc4c(c3)N(C(=O)Nc3nc5ccccc5s3)CCC4)nc2C(=O)N(C)C)cc1 [Example 81, 2-(1-(benzo[d]thiazol-2-ylcarbamoyl)-1,2,3,4-tetrahydroquinolin-7-yl)-5-(4-methoxyphenyl)-N,N-dimethylthiazole-4-carboxamide] | 660 | 660 | 380 |  |
| O=C(O)c1csc(-c2ccc3c(c2)N(C(=O)Nc2nc4ccccc4s2)CCC3)n1 [Example 1] | 1200 | 197 | 360 |  |
